# Test results from paper PMC11859928, “Design, Synthesis, and Antiproliferative Activity of Novel Indole/1,2,4-Triazole Hybrids as Tubulin Polymerization Inhibitors” (Pharmaceuticals, 2025).
# Like-named read-outs stand apart in the source and are kept apart here.
# Columns and labels:
# [1] = tested on: SK-MEL-2; test: NCI five-dose assay; format: cell-based, human; conditions: SK-MEL-2, Melanoma
# [2] = tested on: IGROV1; test: NCI five-dose assay; format: cell-based, human; conditions: IGROV1, Ovarian cancer
# [3] = tested on: MDA-MB-435; test: NCI five-dose assay; format: cell-based, human; conditions: MDA-MB-435, Melanoma
# [4] = tested on: Renal cancer subpanel; test: NCI five-dose assay, subpanel mean; format: cell-based, human
# [5] = tested on: M14; test: NCI five-dose assay; format: cell-based, human; conditions: M14, Melanoma
# [6] = tested on: OVCAR-5; test: NCI five-dose assay; format: cell-based, human; conditions: OVCAR-5, Ovarian cancer
# [7] = tested on: OVCAR-3; test: NCI five-dose assay; format: cell-based, human; conditions: OVCAR-3, Ovarian cancer
# [8] = tested on: Melanoma subpanel; test: NCI five-dose assay, subpanel mean; format: cell-based, human
# [9] = tested on: Ovarian cancer subpanel; test: NCI five-dose assay, subpanel mean; format: cell-based, human
# [10] = tested on: TK-10; test: NCI five-dose assay; format: cell-based, human; conditions: TK-10, Renal cancer
# [11] = tested on: DU-145; test: NCI five-dose assay; format: cell-based, human; conditions: DU-145, Prostate cancer
# [12] = tested on: COLO205; test: NCI five-dose assay; format: cell-based, human; conditions: COLO205, Colon cancer
# [13] = tested on: NCI-H23; test: NCI five-dose assay; format: cell-based, human; conditions: NCI-H23, Non-small cell lung cancer
# [14] = tested on: KM12; test: NCI five-dose assay; format: cell-based, human; conditions: KM12, Colon cancer
# [15] = tested on: HOP-62; test: NCI five-dose assay; format: cell-based, human; conditions: HOP-62, Non-small cell lung cancer
# [16] = tested on: OVCAR-4; test: NCI five-dose assay; format: cell-based, human; conditions: OVCAR-4, Ovarian cancer
# [17] = tested on: panel of 60 human tumor cell lines; test: NCI five-dose assay, full panel; format: cell-based
# [18] = tested on: CAKI-1; test: NCI five-dose assay; format: cell-based, human; conditions: CAKI-1, Renal cancer
# [19] = tested on: K-562; test: NCI five-dose assay; format: cell-based, human; conditions: Homo sapiens, K562, K-562, Leukemia
# [20] = tested on: NCI-H226; test: NCI five-dose assay; format: cell-based, human; conditions: NCI-H226, Non-small cell lung cancer
# [21] = tested on: OVCAR-8; test: NCI five-dose assay; format: cell-based, human; conditions: OVCAR-8, Ovarian cancer
# [22] = tested on: SF-295; test: NCI five-dose assay; format: cell-based, human; conditions: SF-295, CNS cancer
# [23] = tested on: A549/ATCC; test: NCI five-dose assay; format: cell-based, human; conditions: Non-small cell lung cancer
# [24] = tested on: NCI-H322M; test: NCI five-dose assay; format: cell-based, human; conditions: Non-small cell lung cancer
# [25] = tested on: Colon cancer subpanel; test: NCI five-dose assay, subpanel mean; format: cell-based, human
# [26] = tested on: A498; test: NCI five-dose assay; format: cell-based, human; conditions: A498, Renal cancer
# [27] = tested on: SR; test: NCI five-dose assay; format: cell-based, human; conditions: Leukemia
# [28] = Homo sapiens, 48 h, read-out: LC50 (the source's name)
# [29] = Homo sapiens, read-out: GI50 Conc. per Cell Lines
smiles,measurement,setting,value
"O/N=C(\CSc1nnc(-c2c[nH]c3ccccc23)n1-c1ccccc1)c1ccc(Br)cc1 [Compound 7i, (Z)-2-((5-(1H-Indol-3-yl)-4-phenyl-4H-1,2,4-triazol-3-yl)thio)-1-(4-bromophenyl) Ethanone Oxime]",CC50,[1]; [28],37.5 µM
same,GI50,[1]; [29],3.1 µM
same,TGI Conc. per Cell Lines,[1],10.4 µM
same,CC50,"[2]; Homo sapiens, IGROV-1, 48 h, read-out: LC50 (the source's name)",38.3 µM
same,GI50,"[2]; Homo sapiens, IGROV-1, read-out: GI50 Conc. per Cell Lines",3.41 µM
same,TGI Conc. per Cell Lines,[2],11.70 µM
same,CC50,[3]; [28],7.57 µM
same,GI50,[3]; [29],2010 nM
same,TGI Conc. per Cell Lines,[3],3.89 µM
same,GI50,"[4]; Homo sapiens, average sensitivity of all cell lines of the Renal cancer subpanel, read-out: GI50 Subpanel MID b",2870 nM
same,GI50 Selectivity Ratio (MID a/MID b),[4]; Renal cancer subpanel,0.98
same,CC50,[5]; [28],> 100 µM
same,GI50,[5]; [29],3.4 µM
same,TGI Conc. per Cell Lines,[5],17.60 µM
same,LC50,"[6]; Homo sapiens, 48 h",1590 nM
same,GI50,[6]; [29],2180 nM
same,TGI Conc. per Cell Lines,[6],5.21 µM
same,LC50,"[7]; Homo sapiens, 48 h",> 100 µM
same,GI50,[7]; [29],4.98 µM
same,TGI Conc. per Cell Lines,[7],23.8 µM
same,GI50,"[8]; Homo sapiens, average sensitivity of all cell lines of the Melanoma subpanel, read-out: GI50 Subpanel MID b",2890 nM
same,GI50 Selectivity Ratio (MID a/MID b),[8]; Melanoma subpanel,0.97
same,GI50,"[9]; Homo sapiens, average sensitivity of all cell lines of the Ovarian cancer subpanel, read-out: GI50 Subpanel MID b",2790 nM
same,GI50 Selectivity Ratio (MID a/MID b),[9]; Ovarian cancer subpanel,1.00
same,CC50,[10]; [28],30.4 µM
same,GI50,[10]; [29],2800 nM
same,TGI Conc. per Cell Lines,[10],7.63 µM
same,TGI Conc. per Cell Lines,[11],4.08 µM
same,GI50,[11]; [29],2050 nM
same,TGI Conc. per Cell Lines,[12],16.60 µM
same,CC50,"[12]; Homo sapiens, COLO 205, 48 h, read-out: LC50 (the source's name)",> 100 µM
same,GI50,"[12]; Homo sapiens, COLO 205, read-out: GI50 Conc. per Cell Lines",3.8 µM
same,CC50,[13]; [28],84.3 µM
same,GI50,[13]; [29],4.31 µM
same,TGI Conc. per Cell Lines,[13],19.60 µM
same,CC50,[14]; [28],> 100 µM
same,GI50,[14]; [29],4.15 µM
same,TGI Conc. per Cell Lines,[14],29.20 µM
same,TGI Conc. per Cell Lines,[15],3.98 µM
same,GI50,[15]; [29],1860 nM
same,GI50,[16]; [29],2140 nM
same,TGI Conc. per Cell Lines,[16],4.57 µM
same,GI50,"[17]; average sensitivity of all cell lines, read-out: GI50 MID a",2800 nM
same,GI50,"[17]; most of the tested cell lines across nine subpanels, read-out: GI50 values, range across nine subpanels",2100 to 3230 nM
same,TGI Conc. per Cell Lines,[18],8.10 µM
same,LC50,"[18]; Homo sapiens, 48 h",38 µM
same,GI50,[18]; [29],2630 nM
same,CC50,"[19]; 48 h, read-out: LC50 (the source's name)",> 100 µM
same,GI50,[19]; read-out: GI50 Conc. per Cell Lines,2220 nM
same,CC50,[20]; [28],51.4 µM
same,GI50,[20]; [29],3.33 µM
same,TGI Conc. per Cell Lines,[20],14.90 µM
same,CC50,[21]; [28],> 100 µM
same,GI50,[21]; [29],2450 nM
same,TGI Conc. per Cell Lines,[21],6.50 µM
same,CC50,[22]; [28],13.6 µM
same,GI50,[22]; [29],1930 nM
same,TGI Conc. per Cell Lines,[22],4.70 µM
same,CC50,[23]; [28],31 µM
same,GI50,[23]; [29],2490 nM
same,TGI Conc. per Cell Lines,[23],6.66 µM
same,CC50,[24]; [28],93.3 µM
same,GI50,[24]; [29],4.8 µM
same,TGI Conc. per Cell Lines,[24],24.20 µM
same,GI50 Selectivity Ratio (MID a/MID b),[25]; Colon cancer subpanel,0.88
same,GI50,"[25]; Homo sapiens, average sensitivity of all cell lines of the Colon cancer subpanel, read-out: GI50 Subpanel MID b",3.19 µM
same,TGI Conc. per Cell Lines,[26],51.70 µM
same,LC50,"[26]; Homo sapiens, 48 h",> 100 µM
same,GI50,[26]; [29],1630 nM
same,CC50,[27]; [28],> 100 µM
same,TGI Conc. per Cell Lines,[27],>100 µM
